Here are results for one compound from patent US9067894B1, “Compound, composition, and method of activating GIRK potassium channel and use of same for treating conditions of interest” (Vanderbilt University, priority 2013, dated 2015).

Entries after “also recorded” stand apart in the source; their conditions may differ.

In one assay the target is T1, Kv7.4 (Homo sapiens, UniProt P56696).
T1 construct: expressed in transfected cells; host or cells: HEK-293
The assay can be described thus: Thallium flux assay, Kv7.4-expressing cells. The assay is classed as cell-based. The text has this:
Cell Line Construction and Cell Culture. HEK-293 cells co-expressing human GIRK1/2 and rat mGlu8 were generated as previously described (Niswender et al., 2008). A HEK-293 cell line (ATCC, Manassas, Va.) expressing human GIRK1 and human GIRK2 was constructed by transfecting HEK-293 cells with GIRK1 and GIRK2 (Origene, Rockville, Md.) cloned into the pBudCE4.1 vector (Life Technologies, Carlsbad, Calif.) using FuGene 6 (Promega, Madison, Wis.) transfection reagent. Unless otherwise noted, other ion channel-expressing cells were prepared by transfecting HEK-293 cells with individual or combinations of subunits: GIRK1, pCMV6-A-BSD; GIRK2, pCMV6-A-puro; GIRK3, pCMV6-A-hygro; GIRK4, pCMV6-A-AC; Kv7.4, pIRESneo3. The Kir2.1 and hERG-expressing cell lines were made by transfecting T-REx-293 cells (Life Technologies, Carlsbad, Calif.) with Kir2.1 and Kv11.1, respectively, cloned into pcDNA5TO. Monoclonal cell lines were produced by limiting-dilution cloning of antibiotic-resistant cells and functional selection using the thallium flux assay described below. Unless otherwise noted, cells were maintained in Minimal Essential Medium, Alpha Medium (Mediatech, Manassas, Va.) supplemented with 10% fetal bovine serum (Sigma-Aldrich, Saint Louis, Mo.) and GlutaGro (Mediatech, Manassas, Va.), referred to henceforth as cell culture medium. […]

The target of assay [1] is T2, GABAA receptors (α1, β2, γ2 subunit combination) (Homo sapiens, UniProt P14867+P18507+P47870).
T2 construct: expressed in transfected cells; host or cells: HEK-293 (transient)
The assay can be described thus: Whole-cell voltage-clamp on GABAA receptors transiently transfected in HEK-293 cells. The assay is classed as cell-based. Conditions: activation or potentiation of GABA-evoked currents. As to the method:
A single-cell suspension of HEK-293 cells stably transfected with the appropriate ion channels were plated into TC-treated 35 mm polystyrene dishes at ˜15% confluence and incubated overnight in a 5% CO2 cell culture incubator at 37° C. Whole-cell patch-clamp recordings were performed 24-72 h after plating. Borosilicate glass electrodes ([…] resistance) were filled with Intracellular Solution (130 mM KCl, 20 mM NaCl, 5 mM EGTA, 5.46 mM MgCl2, and 10 mM HEPES, pH 7.4). Whole cell currents were recorded in 20K extracellular solution at −70 mV using a Pico 1 amplifier (Tecella, Foothill Ranch, Calif.) controlled by WINWCP 4.X (University of Strathclyde, Glasgow, Scotland, UK). Signals were compensated for electrode capacitance, cellular capacitance and series resistance. Signals were filtered at 1 kHz, and digitized at 5 kHz. Solutions were applied to the cell with a Valvelink 8.2 (Automate Scientific, Berkeley, Calif.) rapid, valve-controlled perfusion system with in-house-made local superfusion manifold. […] One day after transfection, cells were plate into 35 mm polystyrene dishes, incubated and recorded as described above. […]
Voltage-clamp data were analyzed by converting current amplitudes to current density by dividing by each cell's membrane capacitance estimated from capacitance compensation. […]

For the next assay, the target named is T3, Adenosine A3 (Homo sapiens, UniProt P0DMS8).
T3 construct: Ricerca (contract assay)
The assay can be described thus: Radioligand displacement (Ricerca). The assay is classed as binding. (In a radioligand displacement assay an active substance lowers the binding of a labelled ligand.)

The target in the next assay is T4, Dopamine D4.2 (Homo sapiens, UniProt P21917, DEL265-296).
T4 construct: Ricerca
The assay can be described thus: Radioligand displacement (Ricerca). The class given is binding.

In a further assay the test system is Phorbol ester. The assay can be described thus: Radioligand displacement (Ricerca). The class given is binding, mouse. The note with it: 10 μM.

T2 sequence (P14867 28-456): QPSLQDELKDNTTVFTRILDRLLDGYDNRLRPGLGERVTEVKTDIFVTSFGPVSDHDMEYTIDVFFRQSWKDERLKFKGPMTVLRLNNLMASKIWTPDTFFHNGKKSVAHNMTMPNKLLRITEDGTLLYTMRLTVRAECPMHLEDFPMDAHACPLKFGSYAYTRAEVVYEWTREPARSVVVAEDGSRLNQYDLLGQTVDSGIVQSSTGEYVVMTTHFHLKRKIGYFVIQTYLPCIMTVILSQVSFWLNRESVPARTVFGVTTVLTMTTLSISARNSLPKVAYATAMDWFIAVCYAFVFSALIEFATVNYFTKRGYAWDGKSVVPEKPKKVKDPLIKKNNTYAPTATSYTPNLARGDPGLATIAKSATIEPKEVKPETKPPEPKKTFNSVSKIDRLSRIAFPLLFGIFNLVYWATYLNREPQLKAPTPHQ
T2 sequence (P47870 25-512 limits assumed): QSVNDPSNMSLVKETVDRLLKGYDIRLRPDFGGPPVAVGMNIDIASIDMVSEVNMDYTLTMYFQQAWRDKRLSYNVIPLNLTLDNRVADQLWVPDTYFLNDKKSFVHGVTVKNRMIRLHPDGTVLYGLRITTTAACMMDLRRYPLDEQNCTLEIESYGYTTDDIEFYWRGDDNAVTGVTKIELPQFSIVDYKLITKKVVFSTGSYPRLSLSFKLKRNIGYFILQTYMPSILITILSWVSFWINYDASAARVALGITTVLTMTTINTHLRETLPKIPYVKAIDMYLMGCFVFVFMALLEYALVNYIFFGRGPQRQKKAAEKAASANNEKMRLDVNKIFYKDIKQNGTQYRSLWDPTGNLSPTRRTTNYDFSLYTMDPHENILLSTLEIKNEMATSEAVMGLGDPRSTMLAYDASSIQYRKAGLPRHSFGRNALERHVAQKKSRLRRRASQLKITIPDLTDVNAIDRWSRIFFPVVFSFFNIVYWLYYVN
T2 sequence (P18507 40-475): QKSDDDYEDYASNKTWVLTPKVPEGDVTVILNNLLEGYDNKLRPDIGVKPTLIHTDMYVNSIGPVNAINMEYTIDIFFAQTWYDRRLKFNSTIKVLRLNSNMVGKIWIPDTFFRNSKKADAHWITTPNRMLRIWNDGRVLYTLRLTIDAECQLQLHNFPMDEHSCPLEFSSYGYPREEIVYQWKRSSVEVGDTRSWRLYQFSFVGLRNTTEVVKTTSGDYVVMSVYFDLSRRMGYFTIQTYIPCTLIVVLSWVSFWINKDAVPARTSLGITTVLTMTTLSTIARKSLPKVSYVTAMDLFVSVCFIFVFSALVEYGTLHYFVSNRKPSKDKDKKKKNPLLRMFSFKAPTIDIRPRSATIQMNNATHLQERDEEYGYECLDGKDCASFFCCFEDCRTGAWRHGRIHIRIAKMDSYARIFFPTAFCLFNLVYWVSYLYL
T4 sequence (P21917 with tags, fused parts or gaps DEL265-296): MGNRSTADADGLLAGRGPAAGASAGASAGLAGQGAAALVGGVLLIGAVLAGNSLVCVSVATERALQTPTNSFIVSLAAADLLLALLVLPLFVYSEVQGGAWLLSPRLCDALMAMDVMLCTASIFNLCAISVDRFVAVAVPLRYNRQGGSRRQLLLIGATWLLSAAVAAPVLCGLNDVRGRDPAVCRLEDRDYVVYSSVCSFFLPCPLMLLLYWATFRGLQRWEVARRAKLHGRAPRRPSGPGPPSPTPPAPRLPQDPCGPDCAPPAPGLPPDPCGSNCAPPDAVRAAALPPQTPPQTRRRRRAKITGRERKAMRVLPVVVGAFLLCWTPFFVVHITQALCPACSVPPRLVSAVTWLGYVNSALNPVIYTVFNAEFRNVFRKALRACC
T3 sequence (P0DMS8 whole entry): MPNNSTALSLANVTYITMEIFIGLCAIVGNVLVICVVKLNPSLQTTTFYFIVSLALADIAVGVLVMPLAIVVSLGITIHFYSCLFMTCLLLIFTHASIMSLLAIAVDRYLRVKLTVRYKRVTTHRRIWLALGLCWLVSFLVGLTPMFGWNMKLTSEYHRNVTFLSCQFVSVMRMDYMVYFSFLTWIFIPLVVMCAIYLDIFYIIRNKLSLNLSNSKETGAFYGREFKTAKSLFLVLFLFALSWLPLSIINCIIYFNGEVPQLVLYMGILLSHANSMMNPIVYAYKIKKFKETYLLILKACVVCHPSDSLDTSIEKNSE

`Cc1cc(NC(=O)Nc2ccc(F)c(F)c2)n(-c2ccccc2)n1` [VU0456810, 1-(3,4-difluorophenyl)-3-(3-methyl-1-phenyl-1H-pyrazol-5-yl)urea]: the Potency result at Kv7.4 is recorded as “Inactive”; in assay [1] it was “failed to show any activation or potentiation; also recorded: Inactive”. In addition, the inhibition – broadly, the drop in the measured response relative to a control, in per cent – at 10 µM turned out to be 8% at Adenosine A3 and 4% on Dopamine D4.2. Besides, the % Inhibition (usually how much of the control response was suppressed) in the assay with Phorbol ester is given as 1%.
